According to patent EP4722219A1 (Gan & Lee Pharmaceuticals Co., Ltd., priority 2023, dated 2024):

Experiments:
Format in all cases: cell-based
T-47D cells = test: Inhibition of cell proliferation in T-47D cells (CCK-8); conditions: 6 days treatment, CCK-8 cell viability
How it was run: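 T-47D cells (3,000/well) in RPMI-1640 with 10% FBS were exposed to a concentration range of PROTAC compounds for 6 days at 37 °C, 5% CO2. Viability read by CCK-8; IC50 fitted from inhibition rate.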

MCF-7 cells = test: Inhibition of cell proliferation in MCF-7 cells (CCK-8); conditions: MCF-7 cell proliferation, 6 days treatment
How it was run: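 MCF-7 cells, 800 per well in DMEM plus 10% FBS, exposed to graded PROTAC concentrations for 6 days at 37 °C, 5% CO2. Viability by CCK-8; IC50 fitted from inhibition rates.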

ERα [1] = target: T1, ERα (Homo sapiens, UniProt P03372); test: ERα degradation in T-47D cells (Western blot); conditions: 4 hours
T1 sequence (P03372 1-595): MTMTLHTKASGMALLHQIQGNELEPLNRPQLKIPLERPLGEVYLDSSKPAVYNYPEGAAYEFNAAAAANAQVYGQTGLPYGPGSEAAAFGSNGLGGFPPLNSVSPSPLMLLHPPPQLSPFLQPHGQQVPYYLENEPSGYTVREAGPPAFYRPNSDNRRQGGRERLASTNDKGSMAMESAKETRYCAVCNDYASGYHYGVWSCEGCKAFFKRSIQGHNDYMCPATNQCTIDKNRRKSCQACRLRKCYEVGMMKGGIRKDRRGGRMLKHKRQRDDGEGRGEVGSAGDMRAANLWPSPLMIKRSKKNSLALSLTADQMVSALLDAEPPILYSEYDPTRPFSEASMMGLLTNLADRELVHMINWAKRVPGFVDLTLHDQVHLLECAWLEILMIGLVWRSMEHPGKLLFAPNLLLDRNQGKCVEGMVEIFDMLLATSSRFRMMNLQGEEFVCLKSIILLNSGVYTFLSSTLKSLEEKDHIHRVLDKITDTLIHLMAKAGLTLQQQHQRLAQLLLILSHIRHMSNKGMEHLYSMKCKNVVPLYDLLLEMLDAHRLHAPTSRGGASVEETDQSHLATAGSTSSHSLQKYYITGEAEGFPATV
How it was run: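 T-47D cells at 3×10^5 cells/well were exposed to compound (final 0.15-1000 nM, DMSO) for 4 hours at 37°C and then lysed in RIPA. ERα was measured by Western blot (20 µg protein) with infrared imaging. The degradation rate was calculated from ERα/internal-reference grayscale ratios relative to control.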

ERα [2] = target: T1, ERα; test: ERα degradation in MCF-7 cells (Western blot); parameters: host or cells: MCF-7; conditions: 4 hours
How it was run: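 MCF-7 cells treated 4 h at 37 °C with compound at 0.15–1000 nM final. ERα in lysates measured by Western blot (20 µg protein), normalized to an internal reference protein; degradation rate calculated against control.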

Compound: O=C1CCC(Nc2ccc3c(c2)OC2(CC3)CCN(C[C@H]3CC[C@@H](OC4CCN(c5ccc([C@@H]6c7ccc(O)cc7CC[C@@H]6c6ccccc6)cc5)CC4)CC3)CC2)C(=O)N1 (stereo partly drawn) [ER-P-43, 3-((1'-(((1S,4s)-4-((1-(4-((1R,2S)-6-hydroxy-2-phenyl-1,2,3,4-tetrahydronaphthalen-1-yl)phenyl)piperidin-4-yl)oxy)cyclohexyl)methyl)spiro[chromane-2,4'-piperidin]-7-yl)amino)piperidine-2,6-dione]
- IC50 (T-47D cells; Homo sapiens, T47D, 144 h): 95.1 nM
- IC50 (MCF-7 cells; Homo sapiens, MCF7, 144 h): 1070 nM
- Degradation rate of ERα in T-47D cells (%) (ERα [1]; 1nM): 10%
- Degradation rate of ERα in T-47D cells (%) (ERα [1]; 10nM): -1%
- Degradation rate of ERα in MCF-7 cells (%) (ERα [2]; 1nM): -13%
- Degradation rate of ERα in MCF-7 cells (%) (ERα [2]; 10nM): -19%

Compound: O=C1CCC(Nc2ccc3c(c2)OC[C@@H]2CN(C4CCC5(CC4)CN(c4ccc([C@@H]6c7ccc(O)cc7CC[C@@H]6c6ccccc6)cc4)C5)CCN32)C(=O)N1 (stereo partly drawn) [ER-P-36, 3-(((S)-3-(2-(4-((1R,2S)-6-hydroxy-2-phenyl-1,2,3,4-tetrahydronaphthalen-1-yl)phenyl)-2-azaspiro[3.5]nonan-7-yl)-1,2,3,4,4a,5-hexahydrobenzo[b]pyrazino[1,2-d][1,4]oxazin-8-yl)amino)piperidine-2,6-dione]
- IC50 (T-47D cells; Homo sapiens, T47D, 144 h): 25.1 nM
- IC50 (MCF-7 cells; Homo sapiens, MCF7, 144 h): 2280 nM
- Degradation rate of ERα in T-47D cells (%) (ERα [1]; 1nM): 0%
- Degradation rate of ERα in T-47D cells (%) (ERα [1]; 10nM): 1%
- Degradation rate of ERα in MCF-7 cells (%) (ERα [2]; 1nM): 7%
- Degradation rate of ERα in MCF-7 cells (%) (ERα [2]; 10nM): -11%

Compound: O=C1CCC(N2Cc3c(ccc4c3OCC43CCC4(CC3)CN(C3CCN(C(=O)C5CCN(c6ccc([C@@H]7c8ccc(O)cc8CC[C@@H]7c7ccccc7)cc6)CC5)CC3)C4)C2=O)C(=O)N1 (stereo partly drawn) [ER-P-6]
- IC50 (T-47D cells; Homo sapiens, T47D, 144 h): 0.86 nM
- IC50 (MCF-7 cells; Homo sapiens, MCF7, 144 h): < 0.256 nM
- Degradation rate of ERα in T-47D cells (%) (ERα [1]; 1nM): 61%
- Degradation rate of ERα in T-47D cells (%) (ERα [1]; 10nM): 83%
- Degradation rate of ERα in MCF-7 cells (%) (ERα [2]; 1nM): 55%
- Degradation rate of ERα in MCF-7 cells (%) (ERα [2]; 10nM): 71%

Compound: Cn1c(=O)n(C2CCC(=O)NC2=O)c2cc3c(cc21)C1(CCN(C2CCC4(CC2)CN(c2ccc([C@@H]5c6ccc(O)cc6CC[C@@H]5c5ccccc5)cc2)C4)CC1)CO3 (stereo partly drawn) [ER-P-59]
- IC50 (T-47D cells; Homo sapiens, T47D, 144 h): 0.96 nM
- IC50 (MCF-7 cells; Homo sapiens, MCF7, 144 h): 0.875 nM
- Degradation rate of ERα in T-47D cells (%) (ERα [1]; 1nM): 40%
- Degradation rate of ERα in T-47D cells (%) (ERα [1]; 10nM): 63%
- Degradation rate of ERα in MCF-7 cells (%) (ERα [2]; 1nM): 14%
- Degradation rate of ERα in MCF-7 cells (%) (ERα [2]; 10nM): 18%

Compound: Cn1c(=O)n(C2CCC(=O)NC2=O)c2cc3c(cc21)C1(CCN(CC2CCC4(CC2)CN(c2ccc([C@@H]5c6ccc(O)cc6CC[C@@H]5c5ccccc5)cc2)C4)CC1)CO3 (stereo partly drawn) [ER-P-61]
- IC50 (T-47D cells; Homo sapiens, T47D, 144 h): 1.12 nM
- IC50 (MCF-7 cells; Homo sapiens, MCF7, 144 h): 28.8 nM
- Degradation rate of ERα in T-47D cells (%) (ERα [1]; 1nM): 22%
- Degradation rate of ERα in T-47D cells (%) (ERα [1]; 10nM): 43%
- Degradation rate of ERα in MCF-7 cells (%) (ERα [2]; 1nM): 9%
- Degradation rate of ERα in MCF-7 cells (%) (ERα [2]; 10nM): 18%

Compound: O=C1CCC(Nc2ccc3c(c2)OCC32CCN(C[C@H]3CC[C@@H](OC4CCN(c5ccc([C@@H]6c7ccc(O)cc7CC[C@@H]6c6ccccc6)cc5)CC4)CC3)CC2)C(=O)N1 (stereo partly drawn) [ER-P-31, 3-((1'-(((1S,4s)-4-((1-(4-((1R,2S)-6-hydroxy-2-phenyl-1,2,3,4-tetrahydronaphthalen-1-yl)phenyl)piperidin-4-yl)oxy)cyclohexyl)methyl)-2H-spiro[benzofuran-3,4'-piperidin]-6-yl)amino)piperidine-2,6-dione]
- IC50 (T-47D cells; Homo sapiens, T47D, 144 h): 2.71 nM
- IC50 (MCF-7 cells; Homo sapiens, MCF7, 144 h): 54.8 nM
- Degradation rate of ERα in T-47D cells (%) (ERα [1]; 1nM): 26%
- Degradation rate of ERα in T-47D cells (%) (ERα [1]; 10nM): 79%
- Degradation rate of ERα in MCF-7 cells (%) (ERα [2]; 1nM): 29%
- Degradation rate of ERα in MCF-7 cells (%) (ERα [2]; 10nM): 71%

Compound: Cn1c(=O)n(C2CCC(=O)NC2=O)c2ccc3c(c21)OCC31CCN(C2CC3(C2)CN(c2ccc([C@@H]4c5ccc(O)cc5CC[C@@H]4c4ccccc4)cc2)C3)CC1 (stereo partly drawn) [ER-P-18, 3-(1'-(2-(4-((1R,2S)-6-hydroxy-2-phenyl-1,2,3,4-tetrahydronaphthalen-1-yl)phenyl)-2-azaspiro[3.3]heptan-6-yl)-1-methyl-2-oxo-1,2-dihydro-3H,7H-spiro[benzofuro[6,7-d]imidazole-6,4'-piperidin]-3-yl)piperidine-2,6-dione]
- IC50 (T-47D cells; Homo sapiens, T47D, 144 h): 13.7 nM
- IC50 (MCF-7 cells; Homo sapiens, MCF7, 144 h): 7240 nM
- Degradation rate of ERα in T-47D cells (%) (ERα [1]; 1nM): 20%
- Degradation rate of ERα in T-47D cells (%) (ERα [1]; 10nM): 23%
- Degradation rate of ERα in MCF-7 cells (%) (ERα [2]; 1nM): 33%
- Degradation rate of ERα in MCF-7 cells (%) (ERα [2]; 10nM): 18%

Compound: O=C1CC[C@H](NC(=O)c2ccc3c(c2)OCC[C@H]2CN(CC4CCC(OC5CCN(c6ccc([C@@H]7c8ccc(O)cc8CC[C@@H]7c7ccccc7)cc6)CC5)CC4)CCN32)C(=O)N1 (stereo partly drawn) [ER-P-45, (S)-N-((S)-2,6-dioxopiperidin-3-yl)-3-((4-((1-(4-((1R,2S)-6-hydroxy-2-phenyl-1,2,3,4-tetrahydronaphthalen-1-yl)phenyl)piperidin-4-yl)oxy)cyclohexyl)methyl)-2,3,4,4a,5,6-hexahydro-1H-benzo[b]pyrazino[1,2-d][1,4]oxazepine-9-carboxamide]
- IC50 (T-47D cells): 1.48 nM
- IC50 (MCF-7 cells): 1630 nM
- Degradation rate of ERα in T-47D cells (%) (ERα [1]; 1nM): -5%
- Degradation rate of ERα in T-47D cells (%) (ERα [1]; 10nM): -3%
- Degradation rate of ERα in MCF-7 cells (%) (ERα [2]; 1nM): -15%
- Degradation rate of ERα in MCF-7 cells (%) (ERα [2]; 10nM): -24%

Compound: O=C1CCC(N2Cc3c(ccc4c3OCC43CCC4(CCN(CC5CCN(c6ccc([C@@H]7c8ccc(O)cc8CC[C@@H]7c7ccccc7)cc6)CC5)CC4)CC3)C2=O)C(=O)N1 (stereo partly drawn) [ER-P-1, 3-(1"-((1-(4-((1R,2S)-6-hydroxy-2-phenyl-1,2,3,4-tetrahydronaphthalen-1-yl)phenyl)piperidin-4-yl)methyl)-6-oxo-6,8-dihydro-2H,7H-dipyrazole[furo[2,3-e]isoindole-3,1'-cyclohexane-4',4'-piperidin]-7-yl)piperidine-2,6-dione]
- IC50 (T-47D cells; Homo sapiens, T47D, 144 h): 3.74 nM
- IC50 (MCF-7 cells; Homo sapiens, MCF7, 144 h): < 0.256 nM
- Degradation rate of ERα in T-47D cells (%) (ERα [1]; 1nM): 52%
- Degradation rate of ERα in T-47D cells (%) (ERα [1]; 10nM): 81%
- Degradation rate of ERα in MCF-7 cells (%) (ERα [2]; 1nM): 19%
- Degradation rate of ERα in MCF-7 cells (%) (ERα [2]; 10nM): 44%

Compound: CN(C(=O)CN1CCC2(CC1)COc1c2ccc2c1n(C)c(=O)n2C1CCC(=O)NC1=O)C1CCC2(CC1)CN(c1ccc([C@@H]3c4ccc(O)cc4CC[C@@H]3c3ccccc3)cc1)C2 (stereo partly drawn) [ER-P-64, 2-(3-(2,6-dioxopiperidin-3-yl)-1-methyl-2-oxo-2,3-dihydro-1H,7H-spiro[benzofuro[6,7-d]imidazole-6,4'-piperidin]-1'-yl)-N-(2-(4-((1R,2S)-6-hydroxy-2-phenyl-1,2,3,4-tetrahydronaphthalen-1-yl)phenyl)-2-azaspiro[3.5]nonan-7-yl)-N-methylacetamide]
- IC50 (T-47D cells; Homo sapiens, T47D, 144 h): 1.5 nM
- IC50 (MCF-7 cells; Homo sapiens, MCF7, 144 h): 231 nM
- Degradation rate of ERα in T-47D cells (%) (ERα [1]; 1nM): 56%
- Degradation rate of ERα in T-47D cells (%) (ERα [1]; 10nM): 80%
- Degradation rate of ERα in MCF-7 cells (%) (ERα [2]; 1nM): 46%
- Degradation rate of ERα in MCF-7 cells (%) (ERα [2]; 10nM): 57%

Compound: O=C1CCC(Nc2ccc3c(c2)OCC2(CCN(C[C@H]4CC[C@@H](OC5CCN(c6ccc([C@@H]7c8ccc(O)cc8CC[C@@H]7c7ccccc7)cc6)CC5)CC4)CC2)C3)C(=O)N1 (stereo partly drawn) [ER-P-41]
- IC50 (T-47D cells; Homo sapiens, T47D, 144 h): 37.3 nM
- IC50 (MCF-7 cells; Homo sapiens, MCF7, 144 h): 377 nM
- Degradation rate of ERα in T-47D cells (%) (ERα [1]; 1nM): 17%
- Degradation rate of ERα in T-47D cells (%) (ERα [1]; 10nM): 21%
- Degradation rate of ERα in MCF-7 cells (%) (ERα [2]; 1nM): 13%
- Degradation rate of ERα in MCF-7 cells (%) (ERα [2]; 10nM): 15%

Compound: CN(C(=O)CN1CCC2(CC1)COc1c2ccc(F)c1C(=O)N[C@H]1CCC(=O)NC1=O)C1CCC2(CC1)CN(c1ccc([C@@H]3c4ccc(O)cc4CC[C@@H]3c3ccccc3)cc1)C2 [ER-P-40, N-((S)-2,6-dioxopiperidin-3-yl)-6-fluoro-1'-(2-((2-(4-((1R,2S)-6-hydroxy-2-phenyl-1,2,3,4-tetrahydronaphthalen-1-yl)phenyl)-2-azaspiro[3.5]nonan-7-yl)(methyl)amino)-2-oxoethyl)-2H-spiro[benzofuran-3,4'-piperidine]-7-carboxamide]
- IC50 (T-47D cells; Homo sapiens, T47D, 144 h): 28.4 nM
- IC50 (MCF-7 cells; Homo sapiens, MCF7, 144 h): 6210 nM
- Degradation rate of ERα in T-47D cells (%) (ERα [1]; 1nM): 22%
- Degradation rate of ERα in T-47D cells (%) (ERα [1]; 10nM): 34%
- Degradation rate of ERα in MCF-7 cells (%) (ERα [2]; 1nM): -10%
- Degradation rate of ERα in MCF-7 cells (%) (ERα [2]; 10nM): -53%
